Laboratory results as given in PubChem BioAssay AID489023 (Sanford-Burnham Center for Chemical Genomics, 2010).
Active and inactive are the calls of the source. No rule for the calls is given here.

system: 697B cells, BCR-induced NF-kB luciferase reporter luminescence; test: B-cell receptor NF-kB reporter inhibition – 697B cells, luciferase luminescence, dose response (AID 489023)

Structure (SMILES) | IC50
CCn1c(=O)cc(OCC(=O)NCc2ccc(C)o2)c2ccccc21 | > 80 µM (inactive)
COc1cccc(N2CCN(c3ncnc4c3[nH]c3ccc(F)cc34)CC2C)c1 (stereo not given) | 0.79 µM
Cc1nc2cc(-c3ccccc3)nn2c(C)c1CCC(=O)N1CCC2(CC1)OCCO2 | > 80 µM (inactive)
O=C(Nc1ccccc1C(=O)Nc1nnc(C(F)(F)F)s1)c1ccccc1 | > 80 µM (inactive)
O=C(CCCN1C(=O)/C(=C/c2ccccc2Cl)SC1=S)Nc1ccccn1 | 3.97 µM
CCOc1ccc(/C=C2\SC(=S)N(CCCC(=O)NCCCN3CCOCC3)C2=O)cc1 | 0.43 µM
CCCCOc1ccc(NC(=O)C(=O)NCCCn2ccnc2)cc1 | 10.9 µM
O=C(CN1C(=O)c2ccccc2S1(=O)=O)N1CCc2ccccc21 | 1.24 µM
CCn1c(=O)c2cc(C(=O)NCc3cccs3)sc2c2ccccc21 | > 80 µM (inactive)
COc1ccc(-c2ccc(OC)c([C@H]3[C@H]4C=CC[C@@H](C)[C@@H]4C(=O)N3Cc3ccccc3)c2)cc1C | > 80 µM (inactive)
O=C(CN1C(=O)c2ccccc2S1(=O)=O)c1ccc(OC(F)F)cc1 | 1.83 µM
Cc1ccccc1-c1cc(C(=O)Nc2sc(C(=O)OC(C)C)c(C)c2C#N)c2ccccc2n1 | 42.8 µM (inactive)
CNC(=O)c1cccn(Cc2ccc(C(F)(F)F)cc2)c1=O | 47.9 µM (inactive)
O=C(Nc1nc2nc(-c3ccccc3)cc(-c3ccccc3)n2n1)c1ccco1 | 48.3 µM (inactive)
CCN(CC)c1ccc(/C=N/N=C(c2ccccc2)c2ccccc2)c(O)c1 | > 80 µM (inactive)
COc1ccc(-c2ccoc2)cc1[C@H]1[C@H]2C=CC[C@@H](C)[C@@H]2C(=O)N1Cc1ccccc1 | > 80 µM (inactive)
CC(C)(C)c1ccc(-c2noc(CCC(=O)Nc3cccnc3)n2)cc1 | < 0.16 µM
Cc1ccoc1C(=O)Nc1ccc(CC(=O)O)cc1 | 2.09 µM
Cc1cc(C)c2nc(NC(=O)[C@@H](NC(=O)c3cccc(S(=O)(=O)N4CCOCC4)c3)C(C)C)sc2c1 | 16 µM
Cn1c(=O)cc(SCC(=O)N2CCCC2)c2cc(Cl)ccc21 | > 80 µM (inactive)
O=C(CCCN1C(=O)S/C(=C/C=C/c2ccccc2)C1=O)Nc1ccc(C(=O)O)cc1 | > 80 µM (inactive)
CNC(=O)CSc1nc2nn(-c3ccccc3)c(=O)c-2c2n1CCCCC2 | 76.9 µM (inactive)
CCN(CC)C(=O)c1ccc(S(=O)(=O)Cc2ccc(C)cc2)c([N+](=O)[O-])c1 | 3.55 µM
C=CCOc1ccccc1CN(C(=O)CCl)c1ccc2c(c1)OCO2 | 0.72 µM

Structure (SMILES) | IC50
N#Cc1ccccc1COc1ccc(/C=C/C(=O)O)cc1 | 14.9 µM
COc1ccc(-c2ccc(OC)c([C@H]3[C@H]4C=CC[C@@H](C)[C@@H]4C(=O)N3Cc3ccccc3)c2)cc1 | > 80 µM (inactive)
CC(C)(C)c1ccc(-c2nnc(SCC(=O)NC3CC3)o2)cc1 | > 80 µM (inactive)
CC1=CC(C)(C)Nc2ccc(OC(=O)c3cccnc3)cc21 | 14.3 µM
CCN(CC)c1ccc2cc(NC(=O)CCC(=O)O)c(=O)oc2c1 | 1.23 µM
COc1ccc(/C=C2\SC(=O)N(CCCC(=O)Nc3ccc(C(=O)O)cc3)C2=O)cc1OC | 7.83 µM
O=C1CCCc2c1[nH]c1ccc(CN3CCCCC3)cc21 | > 80 µM (inactive)
CCC(=O)N(C1=C(NC)C(=O)c2ccccc2C1=O)C(C)C | > 80 µM (inactive)
COc1ccc(-c2ccc(F)cc2)cc1[C@H]1[C@H]2C=CC[C@@H](C)[C@@H]2C(=O)N1Cc1ccccc1 | > 80 µM (inactive)
Cc1ccc(-c2cn(-c3ccccc3)c3[n+]2CCCS3)cc1 | > 80 µM (inactive)
COC(=O)c1cc(NC(=O)Nc2cc(OC)ccc2OC)cc(C(=O)OC)c1 | > 80 µM (inactive)
Cc1ccc(Sc2cc(NCCCO)c([N+](=O)[O-])c3nonc23)cc1 | > 80 µM (inactive)
OCCN1CCN(C(=S)c2ccc(-c3ccccc3)cc2)CC1 | 5.72 µM
COc1cc(-c2nc3ccc(N4CCN(C)CC4)cc3[nH]2)cc(OC)c1OC | > 80 µM (inactive)
Cc1ccc(-c2nn3c(C)nnc3c3ccccc23)cc1S(=O)(=O)NCCN1CCOCC1 | 31.5 µM (inactive)
CC1Cc2ccccc2N1S(=O)(=O)c1cnc(Cl)c(Cl)c1 (stereo not given) | > 80 µM (inactive)
O=C(CCCN1C(=O)S/C(=C\C=C\c2ccccc2)C1=O)Nc1ccc(O)cc1 | 2.99 µM
CCOC(=O)CNC(=O)CSc1nnc(NC(=O)c2ccc(C)cc2)s1 | 6.84 µM
CC1CCc2c(sc3nc(C(C)(C)C)nc(N4CCN(C(=O)CCl)CC4)c23)C1 (stereo not given) | 0.68 µM
CCN1C(=O)c2cccc3c(S(=O)(=O)Nc4ccccc4)ccc1c23 | 40.4 µM (inactive)
O=C(c1cc2nc(-c3ccccc3)cc(-c3ccccc3)n2n1)N1CCN(C(=O)c2ccco2)CC1 | 8.73 µM
Cn1c(=O)c2c(SCC(=O)Nc3ccccc3F)nc(-c3ccccc3F)nc2n(C)c1=O | 21.8 µM (inactive)
CCOc1ccc(-c2c[n+]3c(n2-c2ccccc2)CCCCC3)cc1 | > 80 µM (inactive)
CC1CC(C)(C)Nc2ccc(OC(=O)c3ccco3)cc21 (stereo not given) | 9.11 µM

Structure (SMILES) | IC50
O=C(CCCN1C(=O)/C(=C/c2ccccc2Cl)SC1=S)NNC(=O)c1ccccc1Cl | 4.23 µM
Cn1nc(-c2ccc(Cl)cc2)c2cc(C(=O)N3CCCC3)sc21 | > 80 µM (inactive)
Cc1ccc(C(=O)CSc2nnc(COc3cc(C)cc(C)c3)o2)cc1 | > 80 µM (inactive)
CC(C)c1ccc(/C=C2\SC(=S)N(CCC(=O)NCCCn3ccnc3)C2=O)cc1 | 16.6 µM
Cc1ccc(-c2nsc3c(N4CCC(C(N)=O)CC4)ncnc23)cc1 | 6.33 µM
Cc1ccc(C2(c3ccc(C)cc3)CC2C(=O)Nc2ccc([N+](=O)[O-])cc2O)cc1 (stereo not given) | 73.4 µM (inactive)
CN(C)S(=O)(=O)c1ccc(NC(=O)N2CCN(c3ccccc3)CC2)cc1 | > 80 µM (inactive)
Cc1ccc(C(=O)OCC(=O)N(CC(C)C)c2c(N)n(Cc3ccccc3)c(=O)[nH]c2=O)o1 | 20.6 µM (inactive)
Cc1cc(OCC(=O)N2CCC(C(N)=O)CC2)c2c3c(c(=O)oc2c1)CCCC3 | > 80 µM (inactive)
NNC(=O)COc1ccc(-c2nccc(-c3ccc(F)cc3)n2)cc1 | 4.92 µM
CCOC(=O)c1nn(-c2ccccc2)c(C#N)c1NC(=O)c1nn(CC)cc1Br | > 80 µM (inactive)
N=c1c2c(n(Cc3ccc(Cl)c(Cl)c3)c3c1CCC3)CCCC2 | 31.1 µM (inactive)
CCN(CC)c1ccc(/C=C2/C(=O)ON=C2C)cc1 | 21.2 µM (inactive)
Cc1cc(C)cc(N2C(=O)NC(=O)/C(=C\c3cccn3-c3ccccc3)C2=O)c1 | 36.4 µM (inactive)
CCOC(=O)Cc1ccc(NC(=O)c2ccc(C(C)(C)C)cc2)cc1 | < 0.16 µM
N=c1ccn(Cc2c(Cl)cccc2Cl)cc1 | > 80 µM (inactive)
Cc1ccc(C(=O)NNC(=O)CCCN2C(=O)/C(=C/c3ccccc3Cl)SC2=S)cc1 | 22 µM (inactive)
N=c1c2c(n(Cc3ccc(Cl)cc3Cl)c3c1CCC3)CCCC2 | 40.3 µM (inactive)
Cc1nc2cc(-c3ccc(Cl)cc3)nn2c(C)c1CCC(=O)NCc1ccco1 | > 80 µM (inactive)
CC(C)C(=O)Nc1ccc(NC(=O)c2ccc3c(c2)OCO3)cc1 | 17.2 µM
CCN(CC(=O)Nc1c(F)cccc1F)C(=O)c1cc(S(=O)(=O)N2CCOCC2)ccc1N1CCCC1 | 12.7 µM
O=C(Nc1nc(-c2ccccc2)cs1)c1ccccc1NS(=O)(=O)c1ccc(F)cc1 | 21.7 µM (inactive)
